Measured values: patent publication US8338565B2, “Macrocyclic compounds for inhibition of tumor necrosis factor alpha” (Ensemble Therapeutics Corporation, priority 2008, dated 2012)
pIC50: −log10 of the molar value. Read-outs that look alike come from different tables or passages of the source. Numbered stars: 1 amine (or outer) side, 2 acyl side, 3 side chain; on linkers, the order of the positions; unused ones are H or OH. Bridge positions count the residues as written; N and C are the ends. Square brackets hold non-standard residues; d marks the D form. Peptide text beside a SMILES is read from it. * marks the point of attachment. Phe(4-(2-MeO-Ph)) = COc1ccccc1-c1ccc(C[C@H](N)C(=O)O)cc1; Phe(4-CF3) = N[C@@H](Cc1ccc(C(F)(F)F)cc1)C(=O)O; Phe(4-COOH) = N[C@@H](Cc1ccc(C(=O)O)cc1)C(=O)O; Bip = N[C@@H](Cc1ccc(-c2ccccc2)cc1)C(=O)O; dBip = N[C@H](Cc1ccc(-c2ccccc2)cc1)C(=O)O; dPhe(4-NH2) = Nc1ccc(C[C@@H](N)C(=O)O)cc1; dPhe(2-CN) = N#Cc1ccccc1C[C@@H](N)C(=O)O; Phe(4-NH2) = Nc1ccc(C[C@H](N)C(=O)O)cc1; Met(O2) = CS(=O)(=O)CC[C@H](N)C(=O)O; d(hPhe) = N[C@H](CCc1ccccc1)C(=O)O; d3Pal = N[C@H](Cc1cccnc1)C(=O)O; d2Thi = N[C@H](Cc1cccs1)C(=O)O; Suc = O=C(CCC(=O)[*:2])[*:1]; Aib = CC(C)(N)C(=O)O; Bn = c1ccc(C*)cc1; βAla = NCCC(=O)O

Target: T1, TNFα / TNFα receptor (TNFα R1/Fc) (Homo sapiens, UniProt P01375)
T1 construct: purchased R&D Systems
Experiment: Inhibition of binding of TNFα to the TNFα receptor (plate ELISA competition)
Conditions: Table 2
Summary of the method: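 Compound dilutions were preincubated 30 min at RT with 8.33 nM TNFα R1/Fc in PBST with 2% DMSO, then added to wells coated with 15 nM TNFα for 30 min. Bound receptor was detected with HRP anti-human Fc and TMB, read as A450.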

[1] = read-out: Activity (IC50, inhibition of TNFα binding to TNFα R1/Fc)
[2] = Activity (IC50, inhibition of TNFα binding to TNFα R1/Fc)

T1 sequence (P01375 77-233 limits assumed, species assumed): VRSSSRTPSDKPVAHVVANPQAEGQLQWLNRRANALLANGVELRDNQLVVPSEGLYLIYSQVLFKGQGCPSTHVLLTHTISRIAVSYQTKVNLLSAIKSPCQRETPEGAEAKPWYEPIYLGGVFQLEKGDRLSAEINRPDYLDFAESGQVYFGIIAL

Row | Structure (SMILES) | pIC50 [1] | pIC50 [2]
1 | O=C1CCC(=O)N[C@H](Cc2cccs2)C(=O)N[C@@H](Cc2ccc(-c3ccccc3)cc2)C(=O)N[C@H](Cc2cccnc2)C(=O)N[C@H](C(=O)O)Cc2ccc(cc2)N1 [Compound 51] ([d2Thi][Bip][d3Pal][Phe(4-NH2)]-OH; linker N-4 via Suc) | < 4.00 | –
2 | COc1ccccc1-c1ccc(C[C@@H]2NC(=O)[C@@H](CCc3ccccc3)NC(=O)CCC(=O)Nc3ccc(cc3)C[C@@H](C(=O)O)NC(=O)[C@@H](Cc3ccccc3)NC2=O)cc1 [Compound 167] ([d(hPhe)][Phe(4-(2-MeO-Ph))][dF][Phe(4-NH2)]-OH; linker N-4 via Suc) | < 4.00 | –
3 | O=C1COc2ccc(cc2)C[C@@H](C(=O)NCCO)NC(=O)[C@H](Cc2ccccc2)NC(=O)[C@H](Cc2ccc(-c3ccccc3)cc2)NC(=O)[C@H](Cc2cccs2)N1 [Compound 338] | – | 4.52 to 5.00
4 | O=C1COc2ccc(cc2)C[C@@H](C(=O)O)NC(=O)[C@H](CCc2ccccc2)NC(=O)[C@@H](Cc2ccc(-c3ccc(O)cc3)cc2)NC(=O)[C@H](Cc2cccs2)N1 [Compound 656] | > 5.00 | –
5 | N#Cc1ccccc1C[C@H]1NC(=O)[C@H](Cc2ccc(C(F)(F)F)cc2)NC(=O)[C@@H](CCc2ccccc2)NC(=O)CCC(=O)Nc2ccc(cc2)C[C@@H](C(=O)O)NC1=O [Compound 225] ([d(hPhe)][Phe(4-CF3)][dPhe(2-CN)][Phe(4-NH2)]-OH; linker N-4 via Suc) | < 4.00 | –
6 | O=C1CCC(=O)N[C@H](Cc2c[nH]c3ccccc23)C(=O)N[C@@H](Cc2ccc(-c3ccccc3)cc2)C(=O)N[C@H](Cc2ccccc2)C(=O)N[C@H](C(=O)O)Cc2ccc(cc2)N1 [Compound 125] ([dW][Bip][dF][Phe(4-NH2)]-OH; linker N-4 via Suc) | < 4.00 | –
7 | O=C1CCC(=O)N[C@H](Cc2cccs2)C(=O)N[C@@H](Cc2ccccc2)C(=O)N[C@H](Cc2ccccc2)C(=O)N[C@H](C(=O)O)Cc2ccc(cc2)N1 [Compound 83] ([d2Thi]F[dF][Phe(4-NH2)]-OH; linker N-4 via Suc) | < 4.00 | –
8 | O=C1CCNC(=O)c2ccc(cc2)C[C@@H](C(=O)O)NC(=O)[C@H](Cc2ccccc2)NC(=O)[C@H](Cc2ccc(-c3ccccc3)cc2)NC(=O)[C@@H](CCc2ccccc2)N1 [Compound 464] ([βAla][d(hPhe)][Bip]F[Phe(4-COOH)]-OH; lactam N-5) | > 5.00 | –
9 | Cc1ccc(C[C@H]2NC(=O)[C@H](O)[C@@H](O)C(=O)Nc3ccc(cc3)C[C@@H](C(=O)O)NC(=O)[C@@H](Cc3ccccc3)NC(=O)[C@H](Cc3ccc(-c4ccccc4)cc3)NC2=O)cc1 [Compound 264] | < 4.00 | –
10 | O=C1COc2ccc(cc2)C[C@H](C(=O)N[C@H](CCc2ccccc2)C(=O)O)NC(=O)[C@H](Cc2c[nH]c3ccccc23)NC(=O)[C@@H](Cc2ccc(-c3ccccc3)cc2)NC(=O)[C@H](Cc2ccncc2)N1 [Compound 740] | – | 4.52 to 5.00
11 | N=C(N)NCCC[C@@H]1NC(=O)[C@H](Cc2ccc(-c3ccccc3)cc2)NC(=O)[C@@H](Cc2cccs2)NC(=O)CCC(=O)Nc2ccc(cc2)C[C@@H](C(=O)O)NC1=O [Compound 72] ([d2Thi][Bip]R[Phe(4-NH2)]-OH; linker N-4 via Suc) | < 4.00 | –
12 | O=C1COc2ccc(cc2)C[C@@H](C(=O)NCCS(=O)(=O)O)NC(=O)[C@H](CCc2ccccc2)NC(=O)[C@@H](Cc2ccc(-c3ccccc3)cc2)NC(=O)[C@H](Cc2ccc(-c3ccccc3)cc2)N1 [Compound 608] | 4.52 to 5.00 | –
13 | CC(=O)N[C@@H]1CC(=O)N[C@H](Cc2cccs2)C(=O)N[C@@H](Cc2ccc(-c3ccccc3)cc2)C(=O)N[C@H](Cc2ccccc2)C(=O)N[C@H](C(=O)O)Cc2ccc(cc2)NC1=O [Compound 378] | 4.52 to 5.00 | –
14 | O=C1COc2ccc(cc2)C[C@@H](C(=O)O)NC(=O)[C@H](CCc2ccccc2)NC(=O)[C@@H](Cc2ccc(-c3ccccc3)cc2)NC(=O)[C@H](Cc2ccc(O)cc2)N1 [Compound 686] | > 5.00 | –
15 | O=C1COc2ccc(cc2)C[C@@H](C(=O)O)NC(=O)[C@@H](CCc2ccccc2)NC(=O)[C@H](Cc2ccc(-c3ccccc3)cc2)NC(=O)[C@@H](CCc2ccccc2)N1 [Compound 144] | 4.52 to 5.00 | –
16 | COc1ccc(-c2ccc(C[C@@H]3NC(=O)[C@@H](Cc4cccs4)NC(=O)[C@H](O)[C@@H](O)C(=O)Nc4ccc(cc4)C[C@@H](C(=O)O)NC(=O)[C@@H](Cc4ccccc4)NC3=O)cc2)cc1 [Compound 333] | 4.00 to 4.52 | –

Further lines, with some results ahead:

Row | pIC50 [1] | Structure (SMILES) | pIC50 [2]
17 | 4.52 to 5.00 | CC(C)[C@H](NC(=O)[C@@H]1Cc2ccc(cc2)OCC(=O)N[C@@H](Cc2cccs2)C(=O)N[C@H](Cc2ccc(-c3ccccc3)cc2)C(=O)N[C@@H](CCc2ccccc2)C(=O)N1)C(=O)O [Compound 487] | –
18 | < 4.00 | O=C1CCC(=O)N[C@H](Cc2ccccc2)C(=O)N[C@@H](Cc2ccc(-c3ccccc3)cc2)C(=O)N[C@H](CCc2ccccc2)C(=O)N[C@H](C(=O)N[C@H](Cc2ccccc2)C(=O)O)Cc2ccc(cc2)N1 [Compound 455] ([dF][Bip][d(hPhe)][Phe(4-NH2)][dF]-OH; linker N-4 via Suc) | –
19 | < 4.00 | O=C1N[C@H](CCc2ccccc2)C(=O)N[C@@H](Cc2ccc(-c3ccccc3)cc2)C(=O)N[C@H](Cc2ccccc2)C(=O)N[C@H](C(=O)O)Cc2ccc1cc2 [Compound 337] ([d(hPhe)][Bip][dF][Phe(4-COOH)]-OH; lactam N-4) | –
20 | 4.00 to 4.52 | CC(C)(NC(=O)[C@H]1Cc2ccc(cc2)NC(=O)CCC(=O)N[C@H](CCc2ccccc2)C(=O)N[C@@H](Cc2ccc(C(F)(F)F)cc2)C(=O)N[C@H](Cc2ccccc2)C(=O)N1)C(=O)O [Compound 14] ([d(hPhe)][Phe(4-CF3)][dF][dPhe(4-NH2)][Aib]-OH; linker N-4 via Suc) | –
21 | > 5.00 | O=C(O)CCNC(=O)[C@@H]1Cc2ccc(cc2)C(=O)N[C@H](CCc2ccccc2)C(=O)N[C@@H](Cc2ccc(-c3ccccc3)cc2)C(=O)N[C@H](Cc2ccccc2)C(=O)N1 [Compound 424] ([d(hPhe)][Bip][dF][Phe(4-COOH)][βAla]-OH; lactam N-4) | –
22 | > 5.00 | O=C(O)CCCNC(=O)[C@@H]1Cc2ccc(cc2)OCC(=O)N[C@@H](Cc2c[nH]c3ccccc23)C(=O)N[C@H](Cc2ccc(-c3ccccc3)cc2)C(=O)N[C@@H](Cc2c[nH]c3ccccc23)C(=O)N1 [Compound 721] | –
23 | < 4.00 | CC(=O)NCCCC[C@@H]1NC(=O)[C@H](Cc2ccc(-c3ccccc3)cc2)NC(=O)[C@H](Cc2cccs2)NC(=O)COc2ccc(cc2)C[C@@H](C(=O)O)NC1=O [Compound 256] | –
24 | < 4.00 | O=C1CCNC(=O)c2ccc(cc2)C[C@@H](C(=O)O)NC(=O)[C@H](Cc2ccccc2)NC(=O)[C@@H](Cc2ccc(-c3ccccc3)cc2)NC(=O)[C@@H](CCc2ccccc2)N1 [Compound 466] ([βAla][d(hPhe)][dBip]F[Phe(4-COOH)]-OH; lactam N-5) | –
25 | 4.52 to 5.00 | O=C1CCC(=O)N[C@H](CCc2ccccc2)C(=O)N[C@@H](Cc2ccc(C(F)(F)F)cc2)C(=O)N[C@H](Cc2ccccc2)C(=O)Nc2ccc(cc2)C[C@@H](C(=O)O)N1 [Compound 552] | –
26 | < 4.00 | CS(=O)(=O)CC[C@@H]1NC(=O)[C@@H](Cc2cccs2)NC(=O)CCC(=O)Nc2ccc(cc2)C[C@@H](C(=O)O)NC(=O)[C@@H](Cc2ccccc2)NC1=O [Compound 98] ([d2Thi][Met(O2)][dF][Phe(4-NH2)]-OH; linker N-4 via Suc) | –
27 | 4.00 to 4.52 | O=C1CCC(=O)N[C@H](COCc2ccccc2)C(=O)N[C@@H](Cc2ccc(C(F)(F)F)cc2)C(=O)N[C@H](Cc2ccccc2)C(=O)N[C@H](C(=O)O)Cc2ccc(cc2)N1 [Compound 137] ([dS](Bn)[Phe(4-CF3)][dF][Phe(4-NH2)]-OH; linker N-4 via Suc) | –
